Measurements as given in patent US9604974B2, “Compounds as modulator of JAK-STAT pathway, methods and applications thereof” (UNIVERSITY OF MYSORE, priority 2015, dated 2017).

Tests used:
[1] = test system: CAL27 (head and neck cancer cell line); assay: MTT anti-proliferative assay, CAL27; type: cell-based; conditions: Homo sapiens, CAL-27
Method: (§1) The anti-proliferative activity of Formula I compounds are studied on HepG2 cells using MTT assay. Briefly, the cells (2.5×10^4/ml) are incubated in triplicate in a 96-well plate in the presence or absence of different concentrations of compounds in a final volume of 0.2 ml up to 72 hours at 37° C. Thereafter, 20 μl MTT solution (5 mg/ml in PBS) is added to each well. After 2 hours of incubation at 37° C., 0.1 ml lysis buffer (20% SDS, 50% dimethyl-formamide) is added; incubation is continued overnight at 37° C.; and the optical density (OD) at 570 nm is measured by Tecan plate reader.
(§2) Additionally, Compound 1 is tested on a panel of six cell lines including Hep3B, PLC/PRF5, AGS (gastric cancer cell line), DU145 (prostrate cancer cell line), MDA MB231 (breast cancer cell line) and CAL27 (head and neck cancer cell line) cells.

[2] = test system: JAK1; assay: Western blot of constitutive phospho-JAK1 in HepG2; type: cell-based, human; conditions: HepG2, 10 μMol/L CIMO
[3] = test system: DU145 (prostrate cancer cell line); assay: MTT anti-proliferative assay, DU145; type: cell-based; conditions: Homo sapiens, DU-145
Method: as §1, §2

[4] = test system: JAK2; assay: Western blot of constitutive phospho-JAK2 in HepG2; type: cell-based, human; conditions: HepG2, 10 μMol/L CIMO
Method: FIG. 2 depicts the suppression of phospho-STAT3 by compound 1 (CIMO) in a dose dependent manner [A]. HepG2 cells (5×10^5/mL) are treated with the indicated concentrations of CIMO for 6 hours, after which whole-cell extracts are prepared and resolved on SDS-PAGE gel, electrotransferred onto nitrocellulose membrane, and probed for phospho-STAT3. The same blot is stripped and reprobed with STAT3 antibody to verify equal protein loading. […] HepG2 cells (5×10^5/mL) are treated with the indicated concentrations of AG490 for about 6 hours, after which Western Blotting is done as described for [A]. [C] depicts the suppression of phospho-STAT3 levels by Compound 1 (CIMO) in a time-dependent manner. HepG2 cells (5×10^5/mL) are treated with 10 μMol/L CIMO for the indicated times, after which Western blotting is done as described for [A]. [D] depicts that compound 1 (CIMO) has no effect on phospho-STAT3 (Ser-727) and STAT3 protein expression. […] HepG2 cells (1×10^5/mL) are incubated with or without 10 μMol/L CIMO for about 6 hours and then analyzed for the intracellular distribution of STAT3 by immunocytochemistry. The same slides are counterstained for nuclei with Hoechst (50 ng/mL) for about 5 minutes and analyzed under an fluorescencemicroscope. […]

[5] = test system: MDA MB231 (breast cancer cell line); assay: MTT anti-proliferative assay, MDA MB231; type: cell-based; conditions: Homo sapiens, MDA-MB-231
Method: as §1, §2

[6] = test system: JAK2; assay: IL-6 induced JAK2 phosphorylation in Hep3B; type: cell-based; conditions: 10 μMol/L CIMO, IL-6 10 ng/mL
Method: FIG. 3 depicts comparative study of cell viability between STAT3-siRNA transfected and Compound 1 (CIMO) treated HepG2 cells [A]. Correspondingly, Western Blot analysis is used to assess the levels of phospho-STAT3 and STAT3 in HepG2 cells with siRNA-mediated depletion STAT3 expression and on exposure to 4 μM CIMO. Whole cell extract is prepared and resolved on SDS-PAGE gel, electrotransferred onto nitrocellulose membrane, and probed for phospho-STAT3 and the same blot is stripped and reprobed with STAT3 antibody and Beta actin to verify equal protein loading. [B] showcases the modulation of STAT3 mediated transcription, α2-M promoter activity by Compound 1 (CIMO) in HepG2 cells. [C] depicts the inhibition of IL-6-induced phosphorylation of STAT3, JAK1 and JAK2 by Compound 1 (CIMO). Hep3B cells (5×10^5/mL) are treated with 10 μMol/L CIMO for the indicated times and then stimulated with IL-6 (10 ng/mL) for about 15 minutes. Whole-cell extracts are then prepared, resolved on SDS-PAGE gel, electrotransferred onto nitrocellulose membrane and probed with phospho-STAT3, phospho-JAK1 and phospho-JAK2 antibodies. The same blot is stripped and reprobed with STAT3, JAK1 and JAK2 antibody to verify equal protein loading. [D] and [E], showcases the suppression of STAT3 regulated gene products involved in cell proliferation and survival by Compound 1 (CIMO). […]

[7] = test system: c-Src; assay: Western blot of constitutive phospho-Src in HepG2; type: cell-based, human; conditions: HepG2, 10 μMol/L CIMO

IC50 [1]: 27.1 µM | IC50 [3]: 38.8 µM | IC50 [5]: 24.3 µM
Structure (SMILES): COc1ccc(C2CNC(c3cn(Cc4ccc(-c5ccccc5C#N)cc4)c4ccccc34)OC23CCCCC3)cc1 (stereo not shown) [Compound 1]
phosphorylation of JAK1 [2]: significant inhibition | phosphorylation of JAK2 [4]: significant inhibition | IL-6 induced phosphorylation of JAK2 [6]: substantially down-regulates | phosphorylation of c-Src kinases [7]: significant inhibition
